From the supplement of paper PMC10307832

What was measured:
Test in all cases: relative viability (nuclei count vs DMSO), 5 days (fraction); higher = more cells survive
BI-D1870 + Navitoclax = compound: CC(C)CCN1c2nc(Nc3cc(F)c(O)c(F)c3)ncc2N(C)C(=O)C1C [BI-D1870] + CC1(C)CCC(c2ccc(Cl)cc2)=C(CN2CCN(c3ccc(C(=O)NS(=O)(=O)c4ccc(N[C@H](CCN5CCOCC5)CSc5ccccc5)c(S(=O)(=O)C(F)(F)F)c4)cc3)CC2)C1 [Navitoclax] (partner 0.5 µM)
In short: (§1)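 Five library-drug doses in √10 steps were combined with a fixed anchor-drug dose, or a single drug was given alone, by pin tool to lung cancer cell lines in 1536-well plates the day after seeding. Nuclei were stained and counted after 5 days. Relative viability is the nuclei count in treated wells over that in vehicle wells, taken as the median of duplicate plates.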

BI-D1870 + Foretinib = compound: CC(C)CCN1c2nc(Nc3cc(F)c(O)c(F)c3)ncc2N(C)C(=O)C1C [BI-D1870] + COc1cc2c(Oc3ccc(NC(=O)C4(C(=O)Nc5ccc(F)cc5)CC4)cc3F)ccnc2cc1OCCCN1CCOCC1 [Foretinib] (partner 0.25 µM)
In short: as §1

Zebularine = compound: O=c1ncccn1[C@@H]1O[C@H](CO)[C@@H](O)[C@H]1O [Zebularine]
In short: (§2)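 Five library-drug doses spaced by √10 were pinned onto vehicle-anchored 1536-well plates of lung cancer cell lines that had been kept overnight at 37 °C. Cells went 5 days without medium change, then were fixed, permeabilised and Hoechst-stained together, imaged at 4× and counted by MetaXpress. Viability is the ratio of treated-well to vehicle-well nuclei, taken as a median over plates. Plates required control CV below 25% and at least one doubling.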

BI-D1870 = compound: CC(C)CCN1c2nc(Nc3cc(F)c(O)c(F)c3)ncc2N(C)C(=O)C1C [BI-D1870]
In short: as §2

Cell Line | relative viability (BI-D1870 + Navitoclax; first compound 0.04 µM) | relative viability (BI-D1870 + Navitoclax; first compound 0.1265 µM) | relative viability (BI-D1870 + Navitoclax; first compound 0.4 µM) | relative viability (BI-D1870 + Navitoclax; first compound 1.265 µM) | relative viability (BI-D1870 + Navitoclax; first compound 4 µM) | relative viability (BI-D1870 + Foretinib; first compound 0.04 µM) | relative viability (BI-D1870 + Foretinib; first compound 0.1265 µM) | relative viability (BI-D1870 + Foretinib; first compound 0.4 µM) | relative viability (BI-D1870 + Foretinib; first compound 1.265 µM) | relative viability (BI-D1870 + Foretinib; first compound 4 µM) | relative viability (Zebularine; 1 µM) | relative viability (Zebularine; 3.162 µM) | relative viability (Zebularine; 10 µM) | relative viability (Zebularine; 31.62 µM) | relative viability (Zebularine; 100 µM) | relative viability (BI-D1870; 0.04 µM) | relative viability (BI-D1870; 0.1265 µM) | relative viability (BI-D1870; 0.4 µM) | relative viability (BI-D1870; 1.265 µM) | relative viability (BI-D1870; 4 µM)
NCI-H1944 | 1.01 | 1.02 | 0.988 | 1.09 | 1.06 | 0.992 | 0.799 | 0.848 | 1.04 | 0.973 | 0.995 | 1.02 | 0.788 | 0.947 | 0.718 | 1.12 | 0.919 | 0.907 | 1.03 | 0.941
EPLC-272H | 1.3 | 0.932 | 1.05 | 1.24 | 1.03 | 0.786 | 0.539 | 0.602 | 0.612 | 0.508 | 1.14 | 0.577 | 0.558 | 0.811 | 0.724 | 1.12 | 0.802 | 0.926 | 0.821 | 0.627
EBC-1 | 0.433 | 0.424 | 0.367 | 0.194 | 0.134 | 0.103 | 0.119 | 0.105 | 0.136 | 0.0927 | 1.1 | 0.811 | 0.842 | 1.11 | 0.974 | 0.995 | 0.889 | 0.839 | 0.654 | 0.361
NCI-H1915 | 0.822 | 0.763 | 0.803 | 0.815 | 0.746 | 1.12 | 1.01 | 1.08 | 1.06 | 0.99 | 1.04 | 0.932 | 0.821 | 1.08 | 1.03 | 1.09 | 0.921 | 0.969 | 0.988 | 0.763
NCI-H596 | 1.21 | 0.922 | 0.947 | 1.2 | 0.987 | 0.882 | 0.918 | 0.889 | 0.849 | 0.958 | 1.12 | 0.954 | 0.781 | 1.06 | 0.989 | 0.986 | 0.912 | 0.939 | 1.08 | 1.03
NCI-H322M | 1.22 | 1.19 | 1.44 | 1.06 | 1.07 | 1.06 | 0.805 | 0.868 | 0.87 | 0.696 | 0.98 | 0.928 | 0.784 | 0.888 | 0.673 | 0.964 | 0.907 | 0.82 | 0.728 | 0.748
NCI-H1299 | 1.04 | 1 | 1.09 | 1.01 | 0.843 | 1.13 | 1.07 | 1.08 | 1.08 | 0.952 | 1.02 | 0.97 | 0.858 | 1.06 | 0.454 | 1.05 | 1.01 | 1.04 | 1.04 | 0.863
NCI-H2228 | 0.94 | 0.811 | 0.819 | 0.823 | 0.359 | 1.03 | 0.806 | 0.941 | 0.821 | 0.647 | 1.17 | 1.08 | 0.782 | 0.8 | 0.486 | 0.999 | 0.82 | 0.845 | 1.21 | 0.702
IA-LM | 0.818 | 0.926 | 0.764 | 0.577 | 0.19 | 1.24 | 1.07 | 1.32 | 1.03 | 0.977 | 1.12 | 0.809 | – | 1.14 | 0.863 | 1.13 | 0.863 | 0.913 | 1.05 | 0.646
NCI-H647 | 1.27 | 0.978 | 1.08 | 1.04 | 0.848 | 1.11 | 1.18 | 1.13 | 1.35 | 1.17 | 1.01 | 0.943 | 0.294 | 0.203 | 0.157 | 1.07 | 0.918 | 1.05 | 1.04 | 0.889
SK-MES-1 | 1.25 | 1.23 | 1.15 | 1.07 | 0.692 | 0.871 | 0.77 | 0.706 | 0.868 | 0.769 | 1.11 | 1.06 | 0.704 | 0.673 | 0.286 | 1.05 | 0.911 | 0.892 | 0.829 | 0.617
NCI-H2170 | 0.608 | 0.524 | 0.578 | 0.514 | 0.496 | 1.06 | 0.971 | 1.05 | 0.934 | 0.957 | 1.1 | 1.01 | 0.933 | 0.975 | 0.693 | 1.06 | 0.925 | 0.961 | 0.949 | 0.843
NCI-H2085 | 1.14 | 1.07 | 1.11 | 1.06 | 0.865 | 0.82 | 0.869 | 0.832 | 0.824 | 0.754 | 1 | 0.949 | 0.829 | 0.972 | 0.662 | 1.06 | 0.95 | 1.01 | 0.984 | 0.746
SW 1573 | 0.93 | 0.81 | 1.13 | 0.852 | 0.602 | 0.958 | 0.783 | 0.853 | 0.937 | 0.881 | 1.04 | 0.897 | 0.721 | 1.01 | 0.77 | 1.14 | 0.896 | 0.968 | 0.857 | 0.61
NCI-H727 | 0.459 | 0.362 | 0.416 | 0.607 | 0.501 | 0.793 | 0.931 | 0.883 | 0.871 | 0.739 | 0.906 | 0.811 | 0.726 | 0.976 | 0.92 | 1.1 | 0.888 | 0.934 | 0.79 | 0.91
NCI-H441 | 0.478 | 0.575 | 0.692 | 0.642 | 0.338 | 1.08 | 0.787 | 1.05 | 1.05 | 0.804 | 1.26 | 0.852 | 0.502 | 0.309 | 0.272 | 1.08 | 0.922 | 0.888 | 1.1 | 1.17
